The assay addresses T1, FRS2α (Homo sapiens, UniProt Q8WU20).
T1 sequence (Q8WU20 1-508): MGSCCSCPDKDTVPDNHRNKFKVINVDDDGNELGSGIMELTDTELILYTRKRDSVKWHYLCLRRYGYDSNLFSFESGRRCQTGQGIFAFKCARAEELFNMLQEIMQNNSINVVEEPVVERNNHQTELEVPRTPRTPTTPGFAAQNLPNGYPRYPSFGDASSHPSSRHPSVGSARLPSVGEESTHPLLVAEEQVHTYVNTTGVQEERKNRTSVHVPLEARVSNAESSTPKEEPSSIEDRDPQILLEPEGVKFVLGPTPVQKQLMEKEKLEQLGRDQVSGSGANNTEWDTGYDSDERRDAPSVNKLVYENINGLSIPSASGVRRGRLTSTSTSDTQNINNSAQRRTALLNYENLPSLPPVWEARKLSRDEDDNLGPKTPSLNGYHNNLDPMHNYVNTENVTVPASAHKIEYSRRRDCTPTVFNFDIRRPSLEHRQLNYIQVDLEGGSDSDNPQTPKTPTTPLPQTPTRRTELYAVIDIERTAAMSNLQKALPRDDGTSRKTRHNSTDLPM
The assay can be described thus: FRS2α phosphorylation in hFOB cells (Western blotting). The following applies: hFOB (FGFR2 IIIc), RPT835 1 micron, FGF-1 100 ng/ml. Further details: endogenous in cells; host or cells: hFOB. Type of assay: cell-based. On the procedure:
The research assessed the influence of inhibitor RPT835 determined by formula II of this invention, intervention with interaction of FGFR2 represented by two most frequent isoforms IIIb and IIIc with FRS2. For this, human cell line of embryonal osteoblasts (hFOB) expressing only FGFR2 […], and human cell line of breast cancer SUM-52 expressing FGFR2 IIIb (all main versions of isoform—C1, C2, C3) were chosen.
Cells were divided into the groups: • 1a) hFOB • 1b) hFOB, stimulating FGF-1 (100 ng/ml) • 1c) hFOB, cultivation with RPT835 (1 micron) and stimulation of FGF-1 (100 ng/ml) • 2a) SUM-52 • 2b) SUM-52, stimulation of FGF-1 (100 ng/ml) • 2c) SUM-52, cultivation with RPT835 (1 micron) and stimulation of FGF-1 (100 ng/ml)
(Immunoblotting shows a protein as a band on a membrane.)

In the case of `Cc1cc([N+](=O)[O-])c(NS(=O)(=O)c2cccc(C(=O)O)c2)cc1-c1cccnc1` [RPT835, 3-(N-(4-methyl-2-nitro-5-(pyridin-3-yl)phenyl)sulfamoyl)benzoic acid], the FRS2α phosphorylation level result is recorded as “completely suppressed the phosphorylation”.

For the origin of these results see US9957236B2, “Selective inhibitors interfering with fibroblast growth factor receptor and FRS2 interaction for the prevention and treatment of cancer and other diseases” (LIMITED LIABILITY COMPANY “RUSSIAN PHARMACEUTICAL …, priority 2014, dated 2018).
